System: A549
Test: Antiproliferative activity against human A549 cells after 48 hrs by CCK-8 assay
Type: functional, cell-based
Conditions: A549, 48 h

## COc1cc2c(cc1OC)C(C#Cc1ccccc1)NCC2 (configuration not stated)
  IC50: 40.1 µM

## C(#CC1NCCc2cc(OCc3ccccc3)c(OCc3ccccc3)cc21)c1ccccc1 (configuration not stated)
  IC50: 22.4 µM
